Reference: patent publication EP0269841A1, “1-Hydroxyalkyl xanthines, processes for their preparation and medicaments containing them” (SOCIETE DES PRODUITS NESTLE S.A., priority 1986, dated 1988)

The compounds below were run on oreillette gauche du cobaye isolée et stimulée électriquement (assay: In vitro inotropic (cardiotonic) activity: contraction force of isolated, electrically stimulated guinea pig left atrium). Details: read-out: Cardiotonique (concentration minimale efficace en ug/ml produisant une réponse significative).
Assay type: cell-based
Source text: Les composés (I) selon l'invention ont été trouvés peu toxiques et n'ont pas ou peu d'effet sur le système nerveux central. Par contre, ils se sont montrés actifs dans les test in vitro d'activité inotropique (cardiotonique). Le Tableau (IV) ci-dessous donne les résultats de ces essais.
Theophylline 15 Amrinone ^2) 100 Milrinone ^2) 0,5 IBMX^3) 0,5 • 1) Mesure de la force de contraction de l'oreillette gauche du cobaye isolée et stimulée électriquement, selon Erjavek, F. and Adamic, S., Arch. Int. Pharmacodyn. 155: 251, 1965. Une réponse est considérée comme significative lorsque la force de contraction de base est augmentée de plus de 40 %. • 2) Médicament cardiotonique selon l'état de la technique • 3) 1-méthyl-3-isobutylxanthine

SMILES	minimal effective concentration
Cc1[nH]c(=O)c(C#N)cc1-c1ccncc1 [Milrinone, reference compound]	0.5 µg/mL

Same assay, conditions: significant response = basal contraction force increased by more than 40 %; isolated left atrium of guinea pig, electrically stimulated

SMILES	Cardiotonique (concentration minimale efficace en ug/ml produisant une réponse significative)
CCCCn1c(=O)n(CC(C)O)c(=O)c2[nH]cnc21 (stereo not shown) [compound 6]	4,2 ug/ml
CCCn1c(=O)n(CCCCCO)c(=O)c2[nH]c(C)nc21 [compound 27]	0,3 ug/ml

Same assay, conditions: significant response = basal contraction force increased by more than 40 %; isolated left atrium of guinea pig, electrically stimulated; listed as 1

SMILES	Cardiotonique (concentration minimale efficace en ug/ml produisant une réponse significative)
CCCn1c(=O)n(CCCCCO)c(=O)c2[nH]c(C)nc21 [Xanthine No. 27, 1-(5-Hydroxypentyl)-3-propyl-8-methylxanthine]	1 µg/mL

Same assay, conditions: significant response = basal contraction force increased by more than 40 %; isolated left atrium of guinea pig, electrically stimulated; listed as 2

SMILES	Cardiotonique (concentration minimale efficace en ug/ml produisant une réponse significative)
CCCCn1c(=O)n(CCCCO)c(=O)c2[nH]cnc21 [Xanthine No. 21, 1-(4-Hydroxybutyl)-3-butylxanthine]	2,5 ug/ml

Same assay, conditions: significant response = basal contraction force increased by more than 40 %; isolated left atrium of guinea pig, electrically stimulated; listed as 3

SMILES	Cardiotonique (concentration minimale efficace en ug/ml produisant une réponse significative)
CC(C)Cn1c(=O)n(CCC(C)O)c(=O)c2[nH]cnc21 (stereo not shown) [Xanthine No. 17, 1-(3-Hydroxybutyl)-3-isobutylxanthine]	2 µg/mL

Same assay, conditions: significant response = basal contraction force increased by more than 40 %; isolated left atrium of guinea pig, electrically stimulated; read-out: Cardiotonique (concentration minimale efficace en ug/ml produisant une réponse significative)

SMILES	minimal effective concentration
Nc1cc(-c2ccncc2)c[nH]c1=O [Amrinone, reference compound]	100 µg/mL
CC(C)Cn1c(=O)n(C)c(=O)c2[nH]cnc21 [IBMX, 1-méthyl-3-isobutylxanthine, reference compound]	0.5 µg/mL
Cn1c(=O)c2[nH]cnc2n(C)c1=O [Theophylline, reference compound]	15 µg/mL
CCCCn1c(=O)n(CC(C)O)c(=O)c2[nH]cnc21 (stereo not shown) [Xanthine No. 6, 1-(2-Hydroxypropyl)-3-butylxanthine]	3.3 µg/mL
CCCn1c(=O)n(CC(C)O)c(=O)c2[nH]c(C)nc21 (stereo not shown) [compound 5]	0.6 µg/mL
CCCn1c(=O)n(CCCO)c(=O)c2[nH]cnc21 [compound 7]	1.3 µg/mL
CCCn1c(=O)n(CCCO)c(=O)c2[nH]c(C)nc21 [compound 8]	4.2 µg/mL
CCCn1c(=O)n(CCCO)c(=O)c2[nH]c(CC)nc21 [compound 9]	2 µg/mL
CCCCn1c(=O)n(CCCO)c(=O)c2[nH]cnc21 [compound 10]	0.4 µg/mL
CC(C)Cn1c(=O)n(CCCO)c(=O)c2[nH]cnc21 [compound 11]	0.7 µg/mL
Cc1nc2c([nH]1)c(=O)n(CCCO)c(=O)n2CC(C)C [compound 12]	0.5 µg/mL
CC(O)CCn1c(=O)c2[nH]cnc2n(C)c1=O (stereo not shown) [compound 13]	50 µg/mL
CCn1c(=O)n(CCC(C)O)c(=O)c2[nH]cnc21 (stereo not shown) [compound 14]	0.8 µg/mL
CCn1c(=O)n(CCC(C)O)c(=O)c2[nH]c(C)nc21 (stereo not shown) [compound 15]	0.6 µg/mL
CCCn1c(=O)n(CCC(C)O)c(=O)c2[nH]cnc21 (stereo not shown) [compound 16]	0.1 µg/mL
CC(C)Cn1c(=O)n(CCC(C)O)c(=O)c2[nH]cnc21 (stereo not shown) [compound 17]	1.3 µg/mL
CCn1c(=O)n(CCCCO)c(=O)c2[nH]cnc21 [compound 18]	3.3 µg/mL
CCCn1c(=O)n(CCCCO)c(=O)c2[nH]cnc21 [compound 19]	0.4 µg/mL
CCCn1c(=O)n(CCCCO)c(=O)c2[nH]c(C)nc21 [compound 20]	0.7 µg/mL
CCCCn1c(=O)n(CCCCO)c(=O)c2[nH]cnc21 [compound 21]	2 µg/mL
Cc1nc2c([nH]1)c(=O)n(CCCCO)c(=O)n2CC(C)C [compound 22]	25 µg/mL
CC(O)CCCn1c(=O)c2[nH]cnc2n(C)c1=O (stereo not shown) [compound 23]	33.3 µg/mL
CCCn1c(=O)n(CCCC(C)O)c(=O)c2[nH]cnc21 (stereo not shown) [compound 24]	0.7 µg/mL
Cn1c(=O)n(CCCCCO)c(=O)c2[nH]cnc21 [compound 25]	6.7 µg/mL
CCCn1c(=O)n(CCCCCO)c(=O)c2[nH]cnc21 [compound 26]	0.2 µg/mL
